Our source for the TGI and GI50 values is PubChem BioAssay (NCI).

Common to all, as to test: inhibition of tumour cell growth, NCI panel, 48 h
The subject of assay [1] is COLO 205 colon.
In assay [2] the test system is HOP-18 NSCLC.
The test system of assay [3] is LOX IMVI melanoma.
Assay [4] deals with LXFL 529 NSCLC.
For assay [5], the system named is SNB-19 CNS.
Assay [6] concerns RXF 393 renal.
Assay [7] deals with SK-MEL-5 melanoma.
For assay [8], the system named is SNB-75 CNS.

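Each compound was tested at five concentrations against cells in 96-well plates for 48 hours. Here, GI50 denotes the concentration required for 50% inhibition of growth. TGI denotes the concentration required for complete inhibition of growth.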 Some results are limits rather than exact numbers.

Consider `Cc1nc(C(N)=O)c(N)n1CCN1CCN(C(=O)CCCCCCCCCCNC2N=CNc3nc[nH]c32)CC1` (stereo unspecified), for which the TGI in assay [1] is greater than 100 µM; in assay [2], greater than 100 µM; in assay [3] it was greater than 100 µM; in assay [4] it was 71.6 µM; in assay [5], greater than 100 µM.
As to `CN1N=CSC12C(=O)N(c1ccccc1)C(=O)N2c1ccccc1` (stereo unspecified), the TGI in assay [1] is greater than 100 µM; in assay [2] it was 9.62 µM; in assay [3] it was greater than 100 µM; in assay [4], greater than 100 µM; in assay [6], greater than 100 µM; in assay [7], greater than 100 µM. The TGI in assay [5] and in assay [8] was greater than 100 µM in each case.
Turning to `O=C1C2C3C=C4c5ccccc5N(c5ccccc5)C4(C2C(=O)N1c1ccccc1)C1C(=O)N(c2ccccc2)C(=O)C31` (stereo unspecified), the TGI in assay [1], in assay [2], in assay [3], in assay [4], in assay [5] and in assay [8] was greater than 100 µM each time.
Consider `CN(C(=O)/C=C/c1ccccc1)C1C2CN3CCC(O2)C13` (stereo unspecified), for which the TGI in assay [1], in assay [2], in assay [3], in assay [4], in assay [6] and in assay [7] was greater than 100 µM throughout. In addition, the TGI in assay [5] and in assay [8] was greater than 100 µM in each case.
With `O=C1C[C@H]2CCCN2[C@@H](c2ccccc2)C1`, the TGI in assay [1], in assay [2], in assay [3], in assay [4], in assay [6] and in assay [7] was greater than 100 µM each time. The TGI in assay [5] and in assay [8] was greater than 100 µM in each case.
As to `CCc1cccc(C)c1NS(=O)(=O)c1ccccc1`, the TGI in assay [4], in assay [6], in assay [7] and in assay [8] was greater than 100 µM each time.
In the case of `O=c1cc(-c2cccs2)[nH]c2cc3c(cc12)OCO3`, the TGI is greater than 100 µM in assay [1]; greater than 100 µM in assay [2]; greater than 100 µM in assay [3]; greater than 100 µM in assay [4]; 8.38 µM in assay [6]; greater than 31.9 µM in assay [7]. Further, the TGI is greater than 100 µM in assay [5] and 6.63 µM in assay [8].
Take `O=c1ncccn1[C@@H]1O[C@H](CO)[C@H](O)C1O` (stereo partly specified): the TGI in assay [1], in assay [2], in assay [3], in assay [4], in assay [6] and in assay [7] was greater than 100 µM in each case. Also, the TGI in assay [5] and in assay [8] was greater than 100 µM throughout.
With `Nc1ncnc2c1ncn2C1OC(CSCC(F)(F)F)C(O)C1O` (stereo unspecified), the TGI in assay [1], in assay [2], in assay [3], in assay [4], in assay [6] and in assay [7] was greater than 100 µM each time. For the same compound, the TGI in assay [5] and in assay [8] was greater than 100 µM in each case.
On to `c1cc[c]([Sn][c]2ccccc2)cc1`, for which the GI50 in assay [1] was 24.3 µM; in assay [2], 21.6 µM; in assay [3] it was 20.6 µM; in assay [4] it was 16.8 µM; in assay [6], 12.4 µM; in assay [7], 16.8 µM. Also, the GI50 was 20 µM in assay [5] and 30.2 µM in assay [8]. Moreover, the TGI in assay [1] turned out to be 59.4 µM; in assay [2] it was 48.8 µM; in assay [3], 42 µM; in assay [4], 33.6 µM; in assay [6], 36.5 µM; in assay [7] it was 31.9 µM. For the same compound, the TGI in assay [5] is 61 µM; in assay [8], greater than 100 µM.
As for `Cc1cc2c(C)nn(Cc3ccccc3)c2c(C(=O)O)c1C`, the TGI in assay [1], in assay [2], in assay [3], in assay [4], in assay [6] and in assay [5] was greater than 100 µM in each case.
As to `CC(=O)OCc1c2ccccc2c(C)c2c1cc(F)c1ccccc12`, the TGI was 36.4 µM in assay [1]; greater than 100 µM in assay [2]; 46.3 µM in assay [3]; greater than 100 µM in assay [4]; 57.9 µM in assay [6]; 69.6 µM in assay [7]. Further, the figures for the TGI in assay [5] and in assay [8] were 82.4 µM and 58.4 µM, respectively.
For `Cn1ccnc1CCc1c(Cl)cccc1Cl`, the TGI in assay [1], in assay [2], in assay [3], in assay [4], in assay [6] and in assay [7] was greater than 100 µM throughout. In addition, in assay [8], the TGI is greater than 100 µM.
Take `COC(=O)C1=CO[C@@H](OC2CC(CO)C(O)C(O)C2O)[C@@H]2[C@@H](C)[C@@H](OC(=O)/C=C/c3ccccc3)[C@@H](O)[C@H]12` (stereo partly specified) (tested in a mixture with another compound): the TGI in assay [1], in assay [2], in assay [3], in assay [4], in assay [7] and in assay [8] was greater than 100 µM each time.
As for `C[N+](C)(C)CCC(=O)CC[N+](C)(C)C`, the TGI was 31.8 µM in assay [1]; 31.8 µM in assay [2]; 30.4 µM in assay [4]; 36 µM in assay [6]; greater than 100 µM in assay [7]; greater than 100 µM in assay [5]. The compound also came in with a TGI in assay [8] of 73.3 µM.
In the case of `CCc1c(C#N)c(=O)[nH]c(=O)n1CCN1CCN(C(=O)NCCCCCCNC(=O)N2CCN(CCn3c(CC)c(C#N)c(=O)[nH]c3=O)CC2)CC1`, the TGI in assay [1], in assay [2], in assay [3], in assay [4], in assay [7] and in assay [5] was greater than 100 µM throughout.
As for `CC[O-].CC[O-].O=C([CH-]C(=O)c1ccccc1)CCCCCCCCC(=O)[CH-]C(=O)c1ccccc1.[Ti+4]`, the GI50 in assay [1] was greater than 100 µM; in assay [3] it was greater than 100 µM; in assay [4], greater than 100 µM; in assay [6], 45 µM; in assay [7], greater than 100 µM; in assay [8] it was greater than 100 µM. Moreover, the TGI in assay [1], in assay [3], in assay [4], in assay [6], in assay [7] and in assay [8] was greater than 100 µM each time.
